In publication PMC5218480 (PLoS ONE, 2017):

Test system: MV-4-11 cells
Experiment: Gene expression microarray analysis (Affymetrix PrimeView) and GSEA
Type: cell-based, human
Design: RFU PODN (11730768_x_at) / Fold change /veh PODN (11730768_x_at) / RFU LINC00158 (11744669_a_at) / Fold change /veh LINC00158 (11744669_a_at) / RFU DUSP10 (11751237_a_at) / Fold change /veh DUSP10 (11751237_a_at) / RFU ID3 (11757404_x_at) / Fold change /veh ID3 (11757404_x_at) / RFU PLEKHG5 (11737974_s_at) / Fold change /veh PLEKHG5 (11737974_s_at) / RFU LRRC4B (11730491_at) / Fold change /veh LRRC4B (11730491_at) / RFU GIMAP4 (11747438_a_at) / Fold change /veh GIMAP4 (11747438_a_at) / RFU KRT8 (11758183_x_at) / Fold change /veh KRT8 (11758183_x_at) / RFU CNN1 (11734310_a_at) / Fold change /veh CNN1 (11734310_a_at) / RFU VPS37D (11726825_at) / Fold change /veh VPS37D (11726825_at) / RFU C10orf10 (11716522_x_at) / Fold change /veh C10orf10 (11716522_x_at) / RFU KIR2DL2 /// KIR2DL4 /// KIR2DL5A /// KIR2DL5B /// KIR2DS1 /// KIR2DS2 /// KIR2DS3 /// KIR2DS4 /// KIR3DL3 /// KIR3DL3 /// KIR3DS1 (11738374_at) / Fold change /veh KIR2DL2 /// KIR2DL4 /// KIR2DL5A /// KIR2DL5B /// KIR2DS1 /// KIR2DS2 /// KIR2DS3 /// KIR2DS4 /// KIR3DL3 /// KIR3DL3 /// KIR3DS1 (11738374_at) / RFU C1QL1 (11718748_at) / Fold change /veh C1QL1 (11718748_at) / RFU TMPRSS4 (11747572_a_at) / Fold change /veh TMPRSS4 (11747572_a_at) / RFU HAMP (11756126_x_at) / Fold change /veh HAMP (11756126_x_at) / RFU RNFT2 (11725882_a_at) / Fold change /veh RNFT2 (11725882_a_at) / RFU NR4A2 (11747474_a_at) / Fold change /veh NR4A2 (11747474_a_at) / RFU ABCC12 (11746883_a_at) / Fold change /veh ABCC12 (11746883_a_at) / RFU TMEM136 (11760407_x_at) / Fold change /veh TMEM136 (11760407_x_at) / RFU CLDN22 /// WWC2 (11732394_at) / Fold change /veh CLDN22 /// WWC2 (11732394_at) / RFU HLA-DPB1 (11760878_x_at) / Fold change /veh HLA-DPB1 (11760878_x_at) / RFU SPINT1 (11716480_a_at) / Fold change /veh SPINT1 (11716480_a_at) / RFU GAP43 (11754022_s_at) / Fold change /veh GAP43 (11754022_s_at) / RFU A4GNT (11735810_at) / Fold change /veh A4GNT (11735810_at) / RFU PRB3 (11715151_x_at) / Fold change /veh PRB3 (11715151_x_at) / RFU TUBB4B (11761932_at) / Fold change /veh TUBB4B (11761932_at) / RFU CAPN14 (11732068_a_at) / Fold change /veh CAPN14 (11732068_a_at) / RFU TMCC2 (11721928_a_at) / Fold change /veh TMCC2 (11721928_a_at) / RFU IRGQ (11745062_a_at) / Fold change /veh IRGQ (11745062_a_at) / RFU FAM174B (11720279_a_at) / Fold change /veh FAM174B (11720279_a_at) / RFU TMPRSS4 (11748680_a_at) / Fold change /veh TMPRSS4 (11748680_a_at) / RFU FAM212B (11763350_a_at) / Fold change /veh FAM212B (11763350_a_at) / RFU PLEKHG5 (11743358_a_at) / Fold change /veh PLEKHG5 (11743358_a_at) / RFU ZSCAN30 (11745921_a_at) / Fold change /veh ZSCAN30 (11745921_a_at) / RFU CMKLR1 (11741424_a_at) / Fold change /veh CMKLR1 (11741424_a_at) / RFU LOC101060620 /// MAPK8IP1 (11723275_at) / Fold change /veh LOC101060620 /// MAPK8IP1 (11723275_at) / RFU SPTSSB (11747773_x_at) / Fold change /veh SPTSSB (11747773_x_at) / RFU PRSS12 (11739890_at) / Fold change /veh PRSS12 (11739890_at) / RFU BIN1 (11741810_x_at) / Fold change /veh BIN1 (11741810_x_at) / RFU WNT11 (11732464_a_at) / Fold change /veh WNT11 (11732464_a_at) / RFU C10orf10 (11716521_a_at) / Fold change /veh C10orf10 (11716521_a_at) / RFU C5orf56 (11738089_at) / Fold change /veh C5orf56 (11738089_at) / RFU CYB561 (11721691_x_at) / Fold change /veh CYB561 (11721691_x_at) / RFU ANKRD19P (11752326_a_at) / Fold change /veh ANKRD19P (11752326_a_at) / RFU OR2T12 /// OR2T33 /// OR2T8 (11738714_s_at) / Fold change /veh OR2T12 /// OR2T33 /// OR2T8 (11738714_s_at) / RFU VCAN (11748164_a_at) / Fold change /veh VCAN (11748164_a_at) / RFU JSRP1 (11732532_at) / Fold change /veh JSRP1 (11732532_at) / RFU KRTAP10-11 (11738290_x_at) / Fold change /veh KRTAP10-11 (11738290_x_at) / RFU MYO3A (11730013_a_at) / Fold change /veh MYO3A (11730013_a_at) / RFU EBF3 (11725865_a_at) / Fold change /veh EBF3 (11725865_a_at) / RFU CAMK2N1 (11719241_x_at) / Fold change /veh CAMK2N1 (11719241_x_at) / RFU C5orf56 (11738088_a_at) / Fold change /veh C5orf56 (11738088_a_at) / RFU OLFML3 (11715873_a_at) / Fold change /veh OLFML3 (11715873_a_at) / RFU LOC100653217 /// NTM (11731650_a_at) / Fold change /veh LOC100653217 /// NTM (11731650_a_at) / RFU MAPK11 (11762145_a_at) / Fold change /veh MAPK11 (11762145_a_at) / RFU FIZ1 (11724087_x_at) / Fold change /veh FIZ1 (11724087_x_at) / RFU OASL (11726364_x_at) / Fold change /veh OASL (11726364_x_at) / RFU SOX15 (11748057_x_at) / Fold change /veh SOX15 (11748057_x_at) / RFU CD79A (11719716_a_at) / Fold change /veh CD79A (11719716_a_at) / RFU HIST1H1D (11736915_at) / Fold change /veh HIST1H1D (11736915_at) / RFU CASKIN2 (11723855_a_at) / Fold change /veh CASKIN2 (11723855_a_at) / RFU LOC730098 (11760151_x_at) / Fold change /veh LOC730098 (11760151_x_at) / RFU OR4N2 (11742367_at) / Fold change /veh OR4N2 (11742367_at) / RFU PRRT2 (11749266_a_at) / Fold change /veh PRRT2 (11749266_a_at) / RFU SNX32 (11753110_a_at) / Fold change /veh SNX32 (11753110_a_at) / RFU CDHR5 (11726645_a_at) / Fold change /veh CDHR5 (11726645_a_at) / RFU RCAN1 (11760418_a_at) / Fold change /veh RCAN1 (11760418_a_at) / RFU FAM167A (11723789_a_at) / Fold change /veh FAM167A (11723789_a_at) / RFU FAM26E (11764081_at) / Fold change /veh FAM26E (11764081_at) / RFU ISYNA1 (11749810_s_at) / Fold change /veh ISYNA1 (11749810_s_at) / RFU ACY1 (11761880_at) / Fold change /veh ACY1 (11761880_at) / RFU 11764098_at / Fold change /veh 11764098_at / RFU SAMD14 (11745864_x_at) / Fold change /veh SAMD14 (11745864_x_at) / RFU NPB (11741838_a_at) / Fold change /veh NPB (11741838_a_at) / RFU TMPRSS6 (11731388_a_at) / Fold change /veh TMPRSS6 (11731388_a_at) / RFU KRTAP10-2 (11738614_at) / Fold change /veh KRTAP10-2 (11738614_at) / RFU ARHGAP8 /// PRR5-ARHGAP8 (11727945_x_at) / Fold change /veh ARHGAP8 /// PRR5-ARHGAP8 (11727945_x_at) / RFU KRTAP5-7 /// NADSYN1 (11734609_at) / Fold change /veh KRTAP5-7 /// NADSYN1 (11734609_at) / RFU RASL12 (11751679_a_at) / Fold change /veh RASL12 (11751679_a_at) / RFU CDKN2B (11736163_a_at) / Fold change /veh CDKN2B (11736163_a_at) / RFU PRF1 (11729649_at) / Fold change /veh PRF1 (11729649_at) / RFU, ZNF638 /// ZNF638-IT1 / Fold change vs veh, ZNF638 /// ZNF638-IT1 / RFU, PANK3 / Fold change vs veh, PANK3 / RFU, SH3YL1 / Fold change vs veh, SH3YL1 / RFU, ZEB2 / Fold change vs veh, ZEB2 / RFU, NRIP1 / Fold change vs veh, NRIP1 / RFU, PTTG1IP / Fold change vs veh, PTTG1IP / RFU, CAPN2 / Fold change vs veh, CAPN2 / RFU, MED14 / Fold change vs veh, MED14 / RFU, SNORA58 / Fold change vs veh, SNORA58 / RFU, C1orf63 / Fold change vs veh, C1orf63 / RFU, LRRFIP1 / Fold change vs veh, LRRFIP1 / RFU, NDUFAF7 / Fold change vs veh, NDUFAF7 / RFU, SLC12A2 / Fold change vs veh, SLC12A2 / RFU, IBTK / Fold change vs veh, IBTK / RFU, ESF1 / Fold change vs veh, ESF1 / Fold change vs veh, TMEM50B / RFU, TAOK1 / Fold change vs veh, TAOK1 / RFU, ACBD3 / Fold change vs veh, ACBD3 / RFU, TMA16 / Fold change vs veh, TMA16 / RFU, RWDD3 / Fold change vs veh, RWDD3 / RFU, BCAT1 / Fold change vs veh, BCAT1 / RFU, EDEM3 / Fold change vs veh, EDEM3 / RFU, TMEM33 / Fold change vs veh, TMEM33 / RFU, WDR75 / Fold change vs veh, WDR75 / RFU, AHCTF1 / Fold change vs veh, AHCTF1 / RFU, TFRC / Fold change vs veh, TFRC / RFU, ZDHHC17 / Fold change vs veh, ZDHHC17 / RFU, NOM1 / Fold change vs veh, NOM1 / RFU, ARL8B / Fold change vs veh, ARL8B / RFU, ZBTB11 / Fold change vs veh, ZBTB11 / RFU, TAMM41 / Fold change vs veh, TAMM41 / RFU, KIAA1704 /// LOC100996395 / Fold change vs veh, KIAA1704 /// LOC100996395 / RFU, ING1 / Fold change vs veh, ING1 / RFU, TRMT61B / Fold change vs veh, TRMT61B / RFU, FUBP3 / Fold change vs veh, FUBP3 / RFU, TP53 / Fold change vs veh, TP53 / RFU, TNKS2 / Fold change vs veh, TNKS2 / RFU, ZFP14 / Fold change vs veh, ZFP14 / RFU, ACTR2 / Fold change vs veh, ACTR2 / RFU, PPP3R1 / Fold change vs veh, PPP3R1 / RFU, PIK3R1 / Fold change vs veh, PIK3R1 / RFU, HNRNPA1 / Fold change vs veh, HNRNPA1 / RFU, RNF170 / Fold change vs veh, RNF170 / RFU, ZNF28 / Fold change vs veh, ZNF28 / RFU, RNGTT / Fold change vs veh, RNGTT / RFU, OGT / Fold change vs veh, OGT / RFU, BRD1 / Fold change vs veh, BRD1 / RFU, MARS / Fold change vs veh, MARS / RFU, ZNF655 / Fold change vs veh, ZNF655 / RFU, FAHD1 / Fold change vs veh, FAHD1 / RFU, BDP1 / Fold change vs veh, BDP1 / RFU, LRRCC1 / Fold change vs veh, LRRCC1 / RFU, ARID1A / Fold change vs veh, ARID1A / RFU, ZNF146 / Fold change vs veh, ZNF146 / RFU, ZNF330 / Fold change vs veh, ZNF330 / RFU, GPN3 / Fold change vs veh, GPN3 / RFU, C9orf123 / Fold change vs veh, C9orf123 / RFU, N4BP2L2 / Fold change vs veh, N4BP2L2 / RFU, ARFIP1 / Fold change vs veh, ARFIP1 / RFU, FAM179B / Fold change vs veh, FAM179B / RFU, BCL10 / Fold change vs veh, BCL10 / RFU, UHRF1BP1L / Fold change vs veh, UHRF1BP1L / RFU, BET1 / Fold change vs veh, BET1 / RFU, CNOT2 / Fold change vs veh, CNOT2 / RFU, ZNF268 / Fold change vs veh, ZNF268 / Fold change vs veh, ZNF507 / RFU, DGCR2 / Fold change vs veh, DGCR2 / RFU, WDSUB1 / Fold change vs veh, WDSUB1 / Fold change vs veh, HSP90B1 /// MIR3652 / RFU, ADSS / Fold change vs veh, ADSS / RFU, GK / Fold change vs veh, GK / RFU, ZNF148 / Fold change vs veh, ZNF148 / RFU, TAF9 / Fold change vs veh, TAF9 / RFU, SLC1A5 / Fold change vs veh, SLC1A5 / RFU, SLMO2 / Fold change vs veh, SLMO2 / RFU, ABCC4 / Fold change vs veh, ABCC4 / RFU, LOC101060439 /// RAP1B / Fold change vs veh, LOC101060439 /// RAP1B / RFU, RFX7 / Fold change vs veh, RFX7 / RFU, GTPBP10 / Fold change vs veh, GTPBP10 / RFU, CNEP1R1 / Fold change vs veh, CNEP1R1 / RFU, BIVM-ERCC5 /// ERCC5 / Fold change vs veh, BIVM-ERCC5 /// ERCC5 / RFU, ILF3 / Fold change vs veh, ILF3 / RFU 11762660_at / Fold change /veh 11762660_at / RFU VCAN (11757783_s_at) / Fold change /veh VCAN (11757783_s_at) / RFU DDX43 (11728927_at) / Fold change /veh DDX43 (11728927_at) / RFU KRT8 (11758188_x_at) / Fold change /veh KRT8 (11758188_x_at) / RFU NKD1 (11759106_at) / Fold change /veh NKD1 (11759106_at) / RFU SRD5A1 (11742802_a_at) / Fold change /veh SRD5A1 (11742802_a_at) / RFU TPSAB1 /// TPSB2 (11721975_s_at) / Fold change /veh TPSAB1 /// TPSB2 (11721975_s_at) / RFU GSTM3 (11746129_a_at) / Fold change /veh GSTM3 (11746129_a_at) / RFU IL23R (11737362_x_at) / Fold change /veh IL23R (11737362_x_at) / RFU TMEM51 (11727254_a_at) / Fold change /veh TMEM51 (11727254_a_at) / RFU PIWIL2 (11732686_x_at) / Fold change /veh PIWIL2 (11732686_x_at) / RFU ORM1 (11744905_x_at) / Fold change /veh ORM1 (11744905_x_at) / RFU CCDC152 (11743942_at) / Fold change /veh CCDC152 (11743942_at) / RFU ECM1 (11717891_a_at) / Fold change /veh ECM1 (11717891_a_at) / RFU IL23R (11748794_a_at) / Fold change /veh IL23R (11748794_a_at) / RFU TNFAIP8L3 (11732012_x_at) / Fold change /veh TNFAIP8L3 (11732012_x_at) / RFU MBOAT4 (11741988_at) / Fold change /veh MBOAT4 (11741988_at) / RFU 11764193_at / Fold change /veh 11764193_at / RFU TMEM53 (11763286_at) / Fold change /veh TMEM53 (11763286_at) / RFU MAGEB2 (11727129_at) / Fold change /veh MAGEB2 (11727129_at) / RFU TMEM200A (11744735_a_at) / Fold change /veh TMEM200A (11744735_a_at) / RFU CCDC152 (11751479_a_at) / Fold change /veh CCDC152 (11751479_a_at) / RFU FAM211A (11726209_a_at) / Fold change /veh FAM211A (11726209_a_at) / RFU RGS16 (11746705_a_at) / Fold change /veh RGS16 (11746705_a_at) / RFU VCAN (11755009_s_at) / Fold change /veh VCAN (11755009_s_at) / RFU RHOB (11743442_s_at) / Fold change /veh RHOB (11743442_s_at) / RFU RGS16 (11720943_a_at) / Fold change /veh RGS16 (11720943_a_at) / RFU RGS16 (11720944_at) / Fold change /veh RGS16 (11720944_at) / RFU, VPS4B / Fold change vs veh, VPS4B / RFU, CREB1 / Fold change vs veh, CREB1 / RFU, DNAJC13 / Fold change vs veh, DNAJC13 / RFU, GNAQ / Fold change vs veh, GNAQ / RFU, CDK5R1 / Fold change vs veh, CDK5R1 / RFU, ZRANB3 / Fold change vs veh, ZRANB3 / RFU, CUL4A / Fold change vs veh, CUL4A / RFU, CCNY / Fold change vs veh, CCNY / RFU, UFL1 / Fold change vs veh, UFL1 / RFU, COG3 / Fold change vs veh, COG3 / RFU, DIAPH2 / Fold change vs veh, DIAPH2 / RFU, SKA2 / Fold change vs veh, SKA2 / RFU, AFF3 / Fold change vs veh, AFF3 / RFU, LMF1 / Fold change vs veh, LMF1 / RFU, IPO11 / Fold change vs veh, IPO11 / RFU, DFFB / Fold change vs veh, DFFB / RFU, FOXP1 / Fold change vs veh, FOXP1 / RFU, CARD8 / Fold change vs veh, CARD8 / RFU, STRN3 / Fold change vs veh, STRN3 / RFU, ADK / Fold change vs veh, ADK / RFU, RASSF2 / Fold change vs veh, RASSF2 / RFU, WIPF1 / Fold change vs veh, WIPF1 / RFU, LARP1B / Fold change vs veh, LARP1B / RFU, RASA1 / Fold change vs veh, RASA1 / RFU, RB1 / Fold change vs veh, RB1 / RFU, PPFIA1 / Fold change vs veh, PPFIA1 / RFU, MAT2A / Fold change vs veh, MAT2A / RFU, CCT5 / Fold change vs veh, CCT5 / RFU, WDR92 / Fold change vs veh, WDR92 / RFU, CUX1 / Fold change vs veh, CUX1 / RFU, TTC7A / Fold change vs veh, TTC7A / RFU, TMEM135 / Fold change vs veh, TMEM135 / RFU, DEPTOR / Fold change vs veh, DEPTOR / RFU, CPM / Fold change vs veh, CPM / RFU, DNAJB6 / Fold change vs veh, DNAJB6 / RFU, CACNA2D3 / Fold change vs veh, CACNA2D3 / RFU, DTX4 / Fold change vs veh, DTX4 / RFU, TFCP2 / Fold change vs veh, TFCP2 / RFU, GMCL1 /// GMCL1P1 / Fold change vs veh, GMCL1 /// GMCL1P1 / RFU, AEBP2 / Fold change vs veh, AEBP2 / RFU, SNHG1 /// SNORD22 /// SNORD25 /// SNORD26 /// SNORD27 /// SNORD28 /// SNORD29 /// SNORD31 / Fold change vs veh, SNHG1 /// SNORD22 /// SNORD25 /// SNORD26 /// SNORD27 /// SNORD28 /// SNORD29 /// SNORD31 / Fold change (Aza/veh), C12orf56 (ProbeSet 11735607_a_at) / Fold change (ACY-1035/veh), C12orf56 (ProbeSet 11735607_a_at) / Fold change (Aza/veh), FGFR1OP (ProbeSet 11751329_s_at) / Fold change (ACY-1035/veh), FGFR1OP (ProbeSet 11751329_s_at) / Fold change (Aza/veh), VPS36 (ProbeSet 11739960_a_at) / Fold change (ACY-1035/veh), VPS36 (ProbeSet 11739960_a_at) / RFU SYPL1 (11715823_x_at) / Fold change /veh SYPL1 (11715823_x_at) / RFU IGFBP7 (11715501_s_at) / Fold change /veh IGFBP7 (11715501_s_at) / RFU REEP3 (11722064_at) / Fold change /veh REEP3 (11722064_at) / RFU IGLL1 (11728026_x_at) / Fold change /veh IGLL1 (11728026_x_at): dose or concentration left out as unconfirmed
Conditions: ProbeSet 11731461_x_at; LIST D

## Nc1ncn([C@@H]2O[C@H](CO)[C@@H](O)[C@H]2O)c(=O)n1 [azacitidine]
  Fold change vs veh, CPM: 0.79
